Test results published in patent publication US9487504B2, “Imidazolyl analogs as syk inhibitors” (Merck Sharp & Dohme Corp., priority 2012, dated 2016).
pIC50: −log10 of the molar value. Where two headings read alike, the source gives them in different places.

Molecular target: T1, recombinant human GST-Syk (Homo sapiens, UniProt P43405)
T1 construct: purchased Carna Biosciences 08-176
Assay: Homogeneous Time-Resolved Fluorescence (HTRF) assay for the recombinant human Syk enzyme
Format: biochemical
Settings: ATP 25 μM, 10-dose titration
Description: Syk inhibition may be determined using the following assay protocol:
Homogeneous Time-Resolved Fluorescence (HTRF) Assay for the Recombinant Human Syk Enzyme:
A recombinant GST-hSyk fusion protein was used to measure potency of compounds to inhibit human Syk activity. The recombinant human GST-Syk (Carna Biosciences #08-176) ([…]) was incubated with various concentrations of the inhibitor diluted in DMSO (0.1% final concentration) for 10 minutes at room temperature in 15 mM Tris-HCl (pH 7.5), 0.01% tween 20, 2 mM DTT in 384 well plate format. To initiate the reaction the biotinylated substrate peptide (250 nM final concentration) that contains the phosphorylation site for Syk was added with magnesium (5 mM final concentration) and ATP (25 μM final concentration). Final volume of the reaction was 10 μL. Phosphorylation of the peptide was allowed to proceed for 45 minutes at room temperature. To quench the reaction and detect the phosphorylated product, 2 nM of a Europium-anti-phosphotyrosine antibody (Perkin Elmer #AD0161) and 70 nM SA-APC (Perkin-Elmer #CR130-100) were added together in 15 mM Tris pH 7.5, 40 mM EDTA, 0.01% tween 20. Final volume of the quenching solution was 10 μL. The resulting HTRF signal was measured after 30 minutes on an EnVision (Perkin-Elmer) reader using a time-resolved fluorescence protocol. IC50 was determined following 10-dose titration (10 μM to 0.508 nM) and four parameter logistic curve fitting using the Merck Assay Data Analyzer. The rhSyk activity (IC50) is expressed as +++ (100 nM or less), ++ (between 100 and 1000 nM), + (between 1 and 10 μM).

Row | Compound | pIC50 (read-out: rhSYK Activity) | pIC50 (read-out: rhSYK IC50)
1 | CCOC(=O)C1(C)CC=C(c2cn(-c3cc(C)cc(Nc4nccc(C(F)(F)F)n4)c3)cn2)CC1 (racemic) [Example 19, Ethyl 1-methyl-4-[1-(3-methyl-5-{[4-(trifluoromethyl)-pyrimidin-2-yl]amino}-phenyl)-1H-imidazol-4-yl]cyclohex-3-ene-1-carboxylate] | 6.00 to 7.00 | 
2 | Cc1cc(Nc2nccc(C(F)(F)F)n2)cc(-n2cnc(C3=CCC(C)(C(=O)O)CC3)c2)c1 (racemic) [Example 21, 1-methyl-4-[1-(3-methyl-5-{[4-(trifluoromethyl)-pyrimidin-2-yl]amino}-phenyl)-1H-imidazol-4-yl]cyclohex-3-ene-1-carboxylic acid] | ≥ 7.00 | 
3 | Cc1cc(Nc2nccc(C(F)(F)F)n2)cc(-n2cnc(C3(O)CCC(C(=O)O)C(C)(C)C3)c2)c1 (racemic) [Example 25, 4-hydroxy-2,2-dimethyl-4-[1-(3-methyl-5-{[4-(trifluoromethyl)pyrimidin-2-yl]amino}phenyl)-1H-imidazol-4-yl]-cyclohexanecarboxylic acid] | ≥ 7.00 | 
4 | Cc1cc(Nc2nccc(C(F)(F)F)n2)cc(-n2cnc(C(C)(O)CO)c2)c1 (racemic) [Example 113, (rac)-2-[1-(3-Methyl-5-{[4-(trifluoromethyl)pyrimidin-2-yl]amino}phenyl)-1H-imidazol-4-yl]propane-1,2-diol] | ≥ 7.00 | 
5 | Cc1cc(Nc2nccc(C(F)(F)F)n2)cc(-n2cnc(C(C)(O)[C@H]3CC[C@H](C(N)=O)CC3)c2)c1 (relative stereo) [Example 7, trans-4-{1-hydroxy-1-[1-(3-methyl-5-{[4-(trifluoromethyl)pyrimidin-2-yl]amino}phenyl)-1H-imidazol-4-yl]ethyl]cyclohexanecarboxamide] | ≥ 7.00 | 
6 | CCCCOC(=O)[C@H]1CC[C@H](C(C)(O)c2cn(-c3cc(C)cc(Nc4nccc(C)n4)c3)cn2)CC1 (relative stereo) [Example 11, Butyl trans-4-[1-hydroxy-1-(1-{3-methyl-5-[(4-methylpyrimidin-2-yl)amino]phenyl}-1H-imidazol-4-yl)ethyl]-cyclohexanecarboxylate] | 6.00 to 7.00 | 
7 | CCCCOC(=O)[C@H]1CC[C@H](C(C)(O)c2cn(-c3cc(C)cc(Nc4nccc(C(F)(F)F)n4)c3)cn2)CC1 (relative stereo) [Example 12, Butyl trans-4-{1-hydroxy-1-[1-(3-methyl-5-[(4-(trifluoromethyl)-pyrimidin-2-yl]amino}-phenyl)-1H-imidazol-4-yl]ethyl}cyclohexane-carboxylate] | 6.00 to 7.00 | 

More lines, now with the values ahead:

Row | pIC50 (read-out: rhSYK Activity) | pIC50 (read-out: rhSYK IC50) | Compound
8 | ≥ 7.00 | 7.83 | Cc1cc(Nc2nccc(C)n2)cc(-n2cnc(C(C)(O)[C@H]3CC[C@H](C(=O)O)CC3)c2)c1 (relative stereo) [Example 9, trans-4-[1-hydroxy-1-(1-{3-methyl-5-[(4-methyl-pyrimidin-2-yl)amino]-phenyl}-1H-imidazol-4-yl)ethyl]cyclohexane-carboxylic acid]
9 | ≥ 7.00 | 8.75 | Cc1cc(Nc2nccc(C(F)(F)F)n2)cc(-n2cnc(C(C)(O)[C@H]3CC[C@H](C(=O)O)CC3)c2)c1 (relative stereo) [Example 10, trans-4-{1-hydroxy-1-[1-(3-methyl-5-{[4-(trifluoromethyl)pyrimidin-2-yl]amino}phenyl)-1H-imidazol-4-yl]ethyl}-cyclohexanecarboxylic acid]
10 | ≥ 7.00 |  | Cc1cc(Nc2nccc(C(F)(F)F)n2)cc(-n2cnc([C@@]3(O)CC[C@@](C)(C(=O)O)C[C@@H]3O)c2)c1 (single isomer, unassigned) [5 (isomer 1)]
11 | ≥ 7.00 |  | Cc1cc(Nc2nccc(C(F)(F)F)n2)cc(-n2cnc([C@]3(O)CC[C@@](C)(C(=O)O)C[C@H]3O)c2)c1 (single isomer, unassigned) [5 (isomer 2)]
12 |  | 7.90 | CCOC(=O)C1CCC(O)(c2cn(-c3cc(C)cc(Nc4nccc(C(F)(F)F)n4)c3)cn2)CC1 (centres unmarked) [1, Step 1]
